Data as given in patent US20250312473A1, “B7H3 ANTIBODY DRUG CONJUGATES” (BEONE MEDICINES I GMBH, priority 2022, published 2025).

What was measured:
[1] = HIC methods to evaluate ADC hydrophobicity (DAR8 HIC retention time); assay type: physicochemical; details: HIC Method 2
Description: HPLC analysis was carried out under the following measurement conditions: • HPLC system: Waters ACQUITY ARC HPLC System • Detector: measurement wavelength: 280 nm • Column: MABPac HIC-10, 5 μm, 4.6×10 mm (Thermo) • Column temperature: 25° C. • Mobile phase A: 1.5 M ammonium sulfate, 50 mM sodium phosphate, pH 7.0 • Mobile phase B: 50 mM sodium phosphate, pH 7.0 • Gradient program: 20% B—20% B (0 min-1 min), 0% B-0% B (1 min-35 min), 20% B-20% B (35 min-40 min) • Flow rate: 0.5 mL/min
Sample preparation: The sample was diluted with initial mobile phase to 0.5 mg/mL.
DAR8 HIC retention time (min) is an indication of the relative hydrophobicity of an ADC. ADCs with higher DAR8 HIC retention have a higher hydrophobic property.

NCI-H1650 = experiment: ADC direct killing, 3D culture, NCI-H1650; assay type: cell-based, human; details: 6 days
Description: (§1) The base medium for NCI-H1650 is ATCC-formulated RPMI-1640 Medium, ATCC 30-2001. To make the complete growth medium, fetal bovine serum was added to the base medium to a final concentration of 10% (Gibco, 10099-141C). The cell line was grown in a humidified 5% CO2 atmosphere at 37° C., and was regularly tested for the presence of mycoplasma with MycoAlert™ PLUS Mycoplasma Detection Kit (Lonza, LT07-710).
(§2) NCI-H1650, NCI-H1048, MDA-MB-453 (2E3/well) or Capan-1 (4E3/well) cells were seeded into 3D-96-well plates (Corning: 4520) at 80 μl/well and incubated at 37° C., 5% CO2, overnight.
(§3) Fresh growth medium containing the varying concentrations of ADCs was added at 40 µl/well. The cells were incubated at 37° C., 5% CO2, 6 days.
(§4) The cell viability was detected by 3D reagent (Promega, G9683), […]. The plates were allowed to incubate at room temperature for 30 minutes to stabilize the luminescent signal. Then the plates were analyzed with a microplate reader.

Capan-1 = experiment: ADC direct killing, 3D culture, Capan-1; assay type: cell-based, human; details: 6 days
Description: Capan-1 is a cell line with epithelial morphology that was isolated from the pancreas of a person with pancreatic adenocarcinoma, and Capan-1 was purchased from ATCC. The base medium for Capan-1 is ATCC-formulated Iscove's Modified Dulbecco's Medium, Catalog No. 30-2005. To make the complete growth medium, fetal bovine serum was added to the base medium to a final concentration of 20% (Gibco, 10099-141C). The cell line was grown in a humidified 5% CO2 atmosphere at 37° C., and was regularly tested for the presence of mycoplasma with MycoAlert™ PLUS Mycoplasma Detection Kit (Lonza, LT07-710).
as §2, §3, §4

NCI-H1048 = experiment: ADC direct killing, 3D culture, NCI-H1048; assay type: cell-based, human; details: 6 days
Description: as §1, with “NCI-H1048” for “NCI-H1650”, “DMEM:F12 Medium Catalog No. 30-2006.” for “RPMI-1640 Medium, ATCC 30-2001.”
as §2, §3, §4

[2] = test system: NCI-H358:MDA-MB-453-nanoLuc = 10:1; experiment: ADC bystander killing, NCI-H358/MDA-MB-453 (nano-Luc) co-culture; assay type: cell-based, human; details: co-culture 10:1, 3D, 6 days
Description: Method: MDA-MB-453-nanoLuc cell line construction PT67-nanoLuc cells were cultured, then the cell-culture medium (containing the virus (nano-Luc gene)) was collected and filtered. MDA-MB-453 cells were seed in 6-well plates at 1E5 cells/well, and incubated at 37° C., 5% CO2, overnight. The PT67-nanoLuc cell medium and 8 ug/mli polybrene was added. The infection was repeated 3 times, every one day. Then the MDA-MB-453-nanoLuc cells were cultured with the addition of 1 mg/ml Geneticin for 5 days. The MDA-MB-453-nanoLuc cells were collected, and Nano-Glo reagent (Promega: N1120) was added to test the nano-Luc transfection efficiency.
Method: ADC Bystander Killing NCI-H358 & MDA-MB-453-nanoLuc (10:1), or MDA-MB-453-nanoLuc cels alone were seeded into 3D-96-well plates (Corning: 4520) at 80 μl/well, and Incubated at 37° C., 5% CO2, overnight. Fresh growth medium containing the varying concentrations of ADCs was added at 40 μl/well. The cells were incubated at 37° C., 5% CO2, 6 days. The 3D-plates were centrifuged at 1500 rpm, 25° C., […], then the supernatant was discarded.
The […] cell viability was detected by Nano-Glo reagent (Promega: N1120), 150 μl/well. The 3D-plates were allowed to incubate at room temperature for 10 minutes to stabilize the luminescent signal. Then the plates were analyzed with a microplate reader.

[3] = test system: H1650 xenografts (B7H3 IHC 3+); experiment: ADC in vivo efficacy study, H1650 xenografts; design: species or system BALB/c Nude mice; details: for TGI (%) at T 28: day 28; for TGI (%) at T 30: day 30
Description: Female BALB/c Nude mice were subcutaneously implanted with 3×10^6 H1650 cells per 200 μL PBS/matrigel in the right flank. After inoculation, tumor volumes were determined twice weekly in two dimensions using a caliper, and were expressed in mm^3 using the formula: V=0.5(a×b^2) where a and b are the long and short dimensions of the tumor, respectively.
Partial regression (PR) was defined as tumor volume smaller than 50% of the starting tumor volume on the first day of dosing in three consecutive measurements and complete regression (CR) was defined as tumor volume less than 14 mm^3 in three consecutive measurements. Data is presented as mean tumor volume±standard error of the mean (SEM). Tumor growth inhibition (TGI) is calculated using formula (TGI):
[formula] • treated t=treated tumor volume at time t • treated t0=treated tumor volume at time 0 • placebo t=placebo tumor volume at time t • placebo t0=placebo tumor volume at time 0

[4] = test system: H1975 xenografts (B7H3 IHC 3+); experiment: ADC in vivo efficacy study, H1975 xenografts; design: species or system BALB/c Nude mice; details: study (5); 3 mpk (3 mg/kg) i.v. on day 1; day 31

Substance: ADC3-A: "ADC3-A is the biosimilar ADC of DS7300a (benchmark)"; antibody MABX-9001a, average DAR 3.99
- HIC DAR8 RT (min) Method 2 [1]: 21.817 (Meth - od 2) min
- EC50 (NCI-H1650; Table 6, NCI-H1650 (High)): 8.2 nM
- Emax (%) (NCI-H1650; Table 6, NCI-H1650 (High)): 54.2%
- EC50 (NCI-H1650; Table 7, NCI-H1650 (High)): 8.2 nM
- Emax (%) (NCI-H1650; Table 7, NCI-H1650 (High)): 54.2%
- EC50 (NCI-H1650; Table 8, NCI-H1650 (High)): 10.9 nM
- Emax (%) (NCI-H1650; Table 8, NCI-H1650 (High)): 33.1%
- EC50 (NCI-H1650; Table 9, NCI-H1650 (High)): 5.7 nM
- Emax (%) (NCI-H1650; Table 9, NCI-H1650 (High)): 62.0%
- EC50 (NCI-H1650; Table 10, NCI-H1650 (High)): 7.4 nM
- Emax (%) (NCI-H1650; Table 10, NCI-H1650 (High)): 61.1%
- EC50 (Capan-1; Table 6, Capan-1 (Low)): 4 nM
- Emax (%) (Capan-1; Table 6, Capan-1 (Low)): 66.7%
- EC50 (Capan-1; Table 7, Capan-1 (Low)): 4 nM
- Emax (%) (Capan-1; Table 7, Capan-1 (Low)): 66.7%
- EC50 (Capan-1; Table 8, Capan-1 (Low)): 1.7 nM
- Emax (%) (Capan-1; Table 8, Capan-1 (Low)): 71.4%
- EC50 (NCI-H1048; Table 9, NCI-H1048 (Low)): 1.2 nM
- Emax (%) (NCI-H1048; Table 9, NCI-H1048 (Low)): 98.9%
- EC50 (NCI-H1048; Table 10, NCI-H1048 (Low)): 2.6 nM
- Emax (%) (NCI-H1048; Table 10, NCI-H1048 (Low)): 99.0%
- EC50 ([2]; Table 11): 9.8 nM
- Emax (%) bystander killing ([2]; Table 11): 89.1%
- EC50 ([2]; Table 12): 9.8 nM
- Emax (%) bystander killing ([2]; Table 12): 89.1%
- EC50 ([2]; Table 13): 5.4 nM
- Emax (%) bystander killing ([2]; Table 13): 82.3%
- EC50 ([2]; Table 14): 13 nM
- Emax (%) bystander killing ([2]; Table 14): 89.5%
- TGI (%) at T 28 ([3]; study (1), 3 mpk (3 mg/kg) i.v. on day 1): 53%
- TGI (%) at T 28 ([3]; study (1), 10 mpk (10 mg/kg) i.v. on day 1): 86%
- TGI (%) at T 30 ([3]; study (2), 10 mpk (10 mg/kg) i.v. on day 1): 85%
- TGI (%) at T 30 ([3]; study (3), 10 mpk (10 mg/kg) i.v. on day 1): 85%
- TGI (%) at T 28 ([3]; study (4), 10 mpk (10 mg/kg) i.v. on day 1): 70%
- TGI (%) at T 31 [4]: 56%
